How the values were obtained:
db/db mice [1] = assay: Biochemical and metabolic indicators in db/db mice, 90 d administration; assay type: in vivo; conditions: once/d 90 d, Losartan 15 mg/kg/d, TMP 5.0 mg/kg, OLB-1 2.31 mg/kg, OLB-2 2.3 mg/kg, mean±SEM, n=6
db/db mice [2] = assay: Glucose and lipid metabolism in db/db mice, 56 d administration; assay type: in vivo; conditions: once/d 56 d, TMP 5.0 mg/kg, mean±SEM, n=6; for Creatinine / Total cholesterol / Triglyceride / Urea: Losartan 10 mg/kg; for Creatinine / Total cholesterol / Triglyceride / Urea / Glucose determination / High-density lipoprotein cholesterol / Low-density lipoprotein cholesterol: OLB-1/OLB-2 13.32 mg/kg; for Glycated hemoglobin / Glucose determination / High-density lipoprotein cholesterol / Low-density lipoprotein cholesterol: metformin 225 mg/kg/d; for Glycated hemoglobin: OLB-1/OLB-2 13.32 mg/kg (0.037 mmol/kg)
Procedure: Mice of a normal control group and model mice were given normal saline 10 ml/kg/d, metformin hydrochloride enteric-coated tablets 225 mg/kg/d, Losartan 10 mg/kg, TMP (5.0 mg/kg, 0.037 mmol/kg), and OLB-1 and OLB-2 (13.32 mg/kg, 0.037 mmol/kg), at a volume of 10 mL/kg, once/d, for continuous administration of 56 d, blood lipids and blood glucose related indexes were measured after blood collection. Data were presented as mean±SEM; n=6 per group. One-way ANOVA and multiple range test were adopted to show differences between the two groups. a, p<0.05 vs. db/db group; c, p<0.001 vs. db/db group.

[3] = tested on: SH—SY5Y neuroblastoma cells; assay: LPS-induced inflammatory factors and oxidative stress-related proteins, ELISA kit; assay type: cell-based; conditions: 1 μg/mL LPS 24 h, mean±SEM, n=8; for TNF-alpha: differentiated SH-SY5Y, supernatant
Procedure: The SH—SY5Y cells were recovered and cultured, and the cells in the logarithmic growth phase were taken. After 24 h of incubation, SH—SY5Y neuroblastoma cells were treated with 1 μM all-trans retinoic acid to induce differentiation, and then inoculated into a 6-well culture dish for 24 h of incubation. The medium was treated with chemicals feed at 0.2 μM (L) or 1 μM (H) and 1 μg/mL LPS for 24 h, a supernatant medium was aspirated, and changes of inflammatory factors and oxidative stress-related proteins were measured by an ELISA kit. Data were presented as mean±SEM; n=8 per group. One-way ANOVA and multiple range test were adopted to show differences between the two groups. a, p<0.05 vs. LPS group; b, p<0.01 vs. LPS group; c, p<0.001 vs. LPS group.

[4] = tested on: 6-OHDA Parkinson's disease rats; assay: APO-induced rotations in 6-OHDA Parkinson's disease rats; assay type: in vivo; conditions: APO-induced 6-OHDA rats, 2 weeks of treatment; different dosages of OLB-1, OLB-2; levodopa 25 mg/kg; FIG. 8
Source text: There is no rotation in a sham-operated group, and there is no significant difference between the groups injected with 6-OHDA, and there are about 180 rotations. […] Data were presented as mean±SEM; n=9-10 per group. One-way ANOVA and multiple range test were adopted to show differences between the two groups. *p<0.05, **p<0.01 vs. before 6-OHDA group.

[5] = tested on: ALS (SOD-G93A) transgenic mice; assay: Limb grip force test in ALS transgenic mice; assay type: in vivo; conditions: different dosages of OLB-1, OLB-2, riluzole 5 mg/kg, FIG. 7
Procedure: The limb grip force test is used directly to assess muscle strength in mice. […] After the start of administration, the grip force of the mice was tested every two weeks, and the measurement was repeated three times for each mouse, and the maximum among the three results was taken as a maximum grip force of the mice. […] Data were presented as mean±SEM; n=10 per group. One-way ANOVA and multiple range test show differences between the two groups. **p<0.01, ***p<0.001 vs. WT (normal control) group; #p<0.05, ##p<0.01 vs. ALS (SOD-G93A) group.

[6] = tested on: ALS (SOD-G93A) transgenic mice; assay: Pole climbing test in ALS transgenic mice; assay type: in vivo; conditions: different dosages of OLB-1, OLB-2, riluzole 5 mg/kg, FIG. 6
Source text: The pole climbing test is generally used to evaluate a motor coordination ability and motor delay of the limbs in mice. A homemade wooden pole about 50 cm long and about 1 cm in diameter was wrapped with medical gauze to increase friction of the wooden pole. The wooden pole was put vertically on a horizontal table, the mouse tail was grabbed such that the mouse head was facing down, with limbs grabbing a top of the pole; after releasing the mouse tail, timing was started, and it was ensured that the mouse crawled downward without external force, and the time was recorded for the mouse to climb from the top of the pole to a bottom platform (a standard was that mouse hind limbs were landed on the ground). […] An average of the three pole climbing times of mice was calculated as a final pole climbing time. […] Data were presented as mean±SEM; n=10 per group. One-way ANOVA and multiple range test were adopted to show differences between the two groups. ***p<0.001 vs. WT (normal control) group; #p<0.05, ##p<0.01 vs. ALS (SOD-G93A) group.

Row | SMILES | Creatinine (db/db mice [1]) | Urea (db/db mice [1]) | Urine albumin/creatinine (db/db mice [1]) | Creatinine (db/db mice [2]) | Total cholesterol (db/db mice [2]) | Triglyceride (db/db mice [2]) | Urea (db/db mice [2]) | Glycated hemoglobin (db/db mice [2]) | Glucose determination (db/db mice [2]) | High-density lipoprotein cholesterol (db/db mice [2]) | Low-density lipoprotein cholesterol (db/db mice [2]) | further results
1 | CCCCc1nc(Cl)c(CO)n1Cc1ccc(-c2ccccc2-c2nn[nH]n2)cc1 [Losartan, reference compound] | 42.12 ± 1.72(c) μmol/L | 7.23 ± 0.51(c) mmol/L | 522.59 ± 103.42(c) mg/g | 42.12 ± 1.72(c) μmol/L | 6.76 ± 0.46(c) mM | 9.68 ± 0.37(c) mg/dL | 7.23 ± 0.51(c) mmol/L | – | – | – | – | –
2 | Cc1nc(C)c(C)nc1C [TMP, tetramethylpyrazine, reference compound] | 52.5 ± 3.76 µmol/L | 11.55 ± 0.59 ^ mmol/L | 687.35 ± 79.04 ^ mg/g | 52.5 ± 3.76 µmol/L | 10.96 ± 1.38 ^ mM | 12.83 ± 1.37 ^ mg/dL | 11.55 ± 0.59 ^ mmol/L | 917.31 ± 57.43 ^ nmol/L | 37.94 ± 3.11 ^ mM | 2.49 ± 0.16 ^ mM | 0.68 ± 0.04 ^ mM | GSH-Px ([3]; compound 0.2 μM (L)): 5.96 ± 0.74 µmol/mg; IL1 ([3]; compound 0.2 μM (L)): 13.26 ± 1.31 pg/mL; IL6 ([3]; compound 0.2 μM (L)): 14.12 ± 1.46 pg/mL; MDA ([3]; compound 0.2 μM (L)): 23.34 ± 1.71 nmol/mg; SOD ([3]; compound 0.2 μM (L)): 9.57 ± 0.61 nU/ml; GSH-Px ([3]; compound 1 μM (H)): 6.90 ± 0.87 µmol/mg; IL1 ([3]; compound 1 μM (H)): 13.53 ± 1.74 pg/mL; IL6 ([3]; compound 1 μM (H)): 12.69 ± 1.85 pg/mL; MDA ([3]; compound 1 μM (H)): 22.94 ± 1.33 nmol/mg; SOD ([3]; compound 1 μM (H)): 8.93 ± 0.47 nU/ml; TNF-alpha ([3]; compound 0.2 μM (L)): 12.22 ± 1.28 pg/mL; TNF-alpha ([3]; compound 1 μM (H)): 12.64 ± 1.70 pg/mL
3 | N[C@@H](Cc1ccc(O)c(O)c1)C(=O)O [levodopa, reference compound] | – | – | – | – | – | – | – | – | – | – | – | number of rotations [4]: effectively reduce the number of rotations
4 | CN(C)C(=N)N=C(N)N [metformin, reference compound] | – | – | – | – | – | – | – | 628.52 ± 50.59(c) nmol/L | 24.01 ± 2.38(c) mM | 2.19 ± 0.12(a) mM | 0.59 ± 0.02(c) mM | –
5 | Nc1nc2ccc(OC(F)(F)F)cc2s1 [riluzole, reference compound] | – | – | – | – | – | – | – | – | – | – | – | limb grip force [5]: effectively increase the limb force; pole climbing time / symptoms of bradykinesia [6]: significantly improve the symptoms of bradykinesia
